# Data taken from US6991685B2, “Low temperature cleaning” (Ecolab Inc., priority 2003, dated 2006).
# Read-outs that look alike come from different tables or passages of the source.
# Experiments:
# [1] = system: yeast-mold isolate (1/3 black fungal isolate, 1/3 gray fungal isolate, 1/3 Yarrowia lipolytica); type: cell-based, yeast-mold isolate from a beverage plant
# yeast-mold isolate = test: Coupon testing for bio-load removal study (five step sanitation program); type: cell-based, yeast-mold isolate from a beverage plant; settings: silicon rubber coupon pre-treated with the labelled agent, inoculated, then five step sanitation program (2600 ppm Vortexx, 40° C., 15 minutes)
# Procedure: The same yeast-mold isolates as in the antimicrobial treatment method were grown up for inoculation onto the coupons. The coupons were inoculated with the isolates. The coupons were then subjected to the inventive five step method involving an initial rinse step, a detergent wash step, an intermediate rinse step, an antimicrobial treatment step, and a final rinse step. The coupons were first placed in 1000 ml of ambient water for 10 minutes. The coupons were then placed in 1000 ml of a wash solution for 60 minutes. The coupons were then placed in a 2600 ppm solution Vortexx™ at 40° C. for 15 minutes. Finally, the coupons were placed in a jar containing sterile water. The carriers were than placed in 25 ml of 0.5% sodium thiosulfate neutralizing solution to suspend any surviving organisms. The neutralizing solution was then filtered and plated on Sabouraud's Dextrose Agar in order to determine the number of surviving organisms.
# [2] = 185 F. water, 15 minute contact, Stainless Steel coupon, no pre-treatment
compound,measurement,setting,value
"O [185 F. Water, water]",Percent Reduction,"[1]; 185 F. water, 15-minute contact, BUNA N coupon, pH 2.3 phosphoric acid 104 F. 2 weeks",>99.5%
same,Percent Reduction,"[1]; 185 F. water, 15-minute contact, BUNA N coupon, pH 13 caustic 185 F. 2 weeks",>99.8%
same,Filter Survivors,[1]; [2],<1 CFU
same,Percent Reduction,[1]; [2],>99.9%
same,log reduction,"[1]; stainless steel coupon, not preconditioned, Table 2 treatments",3 log
same,Percent Reduction (avg of 3),yeast-mold isolate,38.3%
same,log reduction,yeast-mold isolate; listed as 185° F. Water,<1 log
same,log reduction,yeast-mold isolate; listed as 185° F. water,1 log
